Tests used:
[1] = system: rat aortic rings; assay: sGC activator (cinaciguat, riociguat)-induced relaxation of rat aortic rings; conditions: cinaciguat or riociguat (FIG. 4C)
Protocol: An isometric myograph (DMT 620M) was used for ex vivo measurement of vascular function. Eight-to 10-week old Sprague Dawley rats (purchased from Charles River Laboratories, Wilmington, MA) were first anesthetized with 3% isoflurane and then euthanized using inhaled desflurane. The aortas were isolated in an ice-cold, oxygenated (95% O2, 5% CO2) Krebs-Henseleit buffer (118.3 mM NaCl, 4.7 mM KCl, 1.2 mM MgSO4, 1.2 mM KH2PO4, 2.5 mM CaCl2, 25 mM NaHCO3, and 11.0 mM glucose; purchased from Sigma-Aldrich, St. Louis, MO). The thoracic aorta was carefully cleaned to remove perivascular fat and cut into 2-mm rings that were mounted between two stainless steel wires in the myograph chamber containing 8 mL of Krebs-Henseleit buffer in 95% O2 and 5% CO2 at 37° C. First, the rings were equilibrated in the chamber for 20 minutes, followed by a gradual increase of mechanical stretch until a final stretch of 10 mN (Newton) was reached. After an additional incubation with fresh buffer for 30 minutes, the rings were constricted with 8 mL of 80 mM KPSS (43 mM NaCl, 80 mM KCl, 2.5 mM CaCl2, 1.2 mM MgSO4, 1.2 mM KH2PO4, 25.0 mM NaHCO3, and 11.0 mM glucose) for 15 to 20 minutes, followed by 3 washes with the Krebs-Henseleit buffer until the force returned to the baseline stretch. The tension of the aortic rings was continuously measured with the Lab Chart 7 data acquisition system (ADInstruments, Colorado Springs, CO). […] The tension of the aortic rings was continuously measured with the Lab Chart 7 data acquisition system (ADInstruments, Colorado Springs, CO).
(§1) To assess the effect of CFZ on vascular contraction, the aortic rings were pre-treated with or without CFZ for 2 hours, followed by treatment with an increasing concentration of phenylephrine (PE) from 10 nM to 1 μM. […] The contraction was continuously measured and plotted as percent contraction normalized to the response of KPSS. […] The relaxation was continuously measured and plotted as percent relaxation normalized to the response with 1 μM PE.

[2] = system: rat aortic rings; assay: Angiotensin induced contraction (AUC) of rat aortic rings; conditions: LNAME+indomethacin, 2.7 μM CFZ 1.5 hour, 30 nM Angiotensin 30 min (FIG. 11)
Protocol: Aortas were isolated from 8-10 week old CD® (Sprague Dawley) rats (from Charles River Laboratories) in an ice-cold, oxygenated (95% O2, 5% CO2) Krebs-Henseleit buffer. The aortas were then carefully cleaned to remove perivascular fat and cut into 2-mm rings that were mounted between two stainless steel wires in the myograph chamber containing 8 mL of Krebs-Henseleit buffer in 95% O2 and 5% CO2 at 37° C. Rings were stretch until a final stretch of 10 mN (Newton) was reached and incubated for 30 mins for equilibration. The rings were constricted with 8 mL of 80 mM KPSS for 15 minutes, followed by 3 washes with the Krebs-Henseleit buffer until the force returned to the baseline stretch. The aorta were then treated for one of the following experiments: • For protein expression studies the aortic rings were pre-treated with 100 μM N(gamma)-nitro-L-arginine methyl ester (L-NAME; Sigma-Aldrich) and 10 μM indomethacin for 10 minutes prior to the pre-incubation with CFZ (Amgen Inc.) for 1.5 hours.
Following the two incubation the rings were treated with either vehicle or 2.7 μM CFZ for further 1.5 hours before addition of 30 nM Angiotensin for 30 min. Angiotensin induced transient contraction which returned to the baseline in 30 mins. Area Under the Curve (AUC) of angiotensin induced contraction was measured.
Aortic rings were incubated for 10 min with 100 μM LNAME+10 μM indomethacin (endothelium derived relaxing agents blockers) for 10 mins followed by addition of 10 μM SB 203580 (p38 inhibitor) or PF3644022 (MAPKAPK-2 inhibitor) in some rings for 10 more mins as indicated. This was followed by addition of 2.7 μM CFZ in some rings as indicated for 1.5 hour. 30 nM Angiotensin was added for 30 min. Angiotensin induced transient contraction which returned to the baseline in 30 mins.

[3] = system: sGC-β; assay: Western blot of sGC-β in rat aortic smooth muscle cells; format: cell-based; conditions: CFZ for more than 12 hours (FIG. 4A)
Protocol: Each cell pellet was lysed in 50 to 70 μL RIPA buffer (Cell Signaling Technology, Danvers, MA) with the Halt™ protease and phosphatase inhibitor cocktail (Thermo Fisher Scientific). Lysates were quantitated and loaded onto the Li-COR Western blot system. Antibodies specific to phosphorylated eNOS and eNOS from Thermo Fisher Scientific, anti-Guanylyl Cyclase β1 (ER-19) (Sigma-Aldrich), and β-Actin (Sigma-Aldrich) were diluted 1:1000 for Western blot. Antibodies specific to p-VASP, VASP, and GADPH-HRP were purchased from Cell Signaling Technology.

[4] = system: rat aortic rings; assay: Nifedipine-induced relaxation of rat aortic rings; conditions: pretreatment of aortic rings with CFZ (FIG. 2C)
Protocol: (§2) An isometric myograph (DMT 620M) was used for ex vivo measurement of vascular function. Eight-to 10-week old Sprague Dawley rats (purchased from Charles River Laboratories, Wilmington, MA) were first anesthetized with 3% isoflurane and then euthanized using inhaled desflurane. The aortas were isolated in an ice-cold, oxygenated (95% O2, 5% CO2) Krebs-Henseleit buffer (118.3 mM NaCl, 4.7 mM KCl, 1.2 mM MgSO4, 1.2 mM KH2PO4, 2.5 mM CaCl2, 25 mM NaHCO3, and 11.0 mM glucose; purchased from Sigma-Aldrich, St. Louis, MO). […] The tension of the aortic rings was continuously measured with the Lab Chart 7 data acquisition system (ADInstruments, Colorado Springs, CO). […]
as §1

[5] = system: rat aortic rings; assay: Vasopressor-induced contraction of rat aortic rings, myograph
Protocol: as §2, §1

[6] = system: rat aortic rings; assay: Basal vascular tone of isolated rat aortic rings, isometric myograph
Protocol: An isometric myograph (DMT 620M) was used for ex vivo measurement of vascular function. Eight-to 10-week old Sprague Dawley rats (purchased from Charles River Laboratories, Wilmington, MA) were first anesthetized with 3% isoflurane and then euthanized using inhaled desflurane. The aortas were isolated in an ice-cold, oxygenated (95% O2, 5% CO2) Krebs-Henseleit buffer (118.3 mM NaCl, 4.7 mM KCl, 1.2 mM MgSO4, 1.2 mM KH2PO4, 2.5 mM CaCl2, 25 mM NaHCO3, and 11.0 mM glucose; purchased from Sigma-Aldrich, St. Louis, MO). The thoracic aorta was carefully cleaned to remove perivascular fat and cut into 2-mm rings that were mounted between two stainless steel wires in the myograph chamber containing 8 mL of Krebs-Henseleit buffer in 95% O2 and 5% CO2 at 37° C. First, the rings were equilibrated in the chamber for 20 minutes, followed by a gradual increase of mechanical stretch until a final stretch of 10 mN (Newton) was reached. After an additional incubation with fresh buffer for 30 minutes, the rings were constricted with 8 mL of 80 mM KPSS (43 mM NaCl, 80 mM KCl, 2.5 mM CaCl2, 1.2 mM MgSO4, 1.2 mM KH2PO4, 25.0 mM NaHCO3, and 11.0 mM glucose) for 15 to 20 minutes, followed by 3 washes with the Krebs-Henseleit buffer until the force returned to the baseline stretch. The tension of the aortic rings was continuously measured with the Lab Chart 7 data acquisition system (ADInstruments, Colorado Springs, CO). In Some of the experiments the aortic rings were pre-treated with 100 μM N(gamma)-nitro-L-arginine methyl ester (L-NAME; Sigma-Aldrich) and 10 μM indomethacin for 10 minutes prior to the pre-incubation with CFZ (Amgen Inc.) for 2 hours. After an additional incubation with fresh buffer for 30 minutes, the rings were constricted with 8 mL of 80 mM KPSS (43 mM NaCl, 80 mM KCl, 2.5 mM CaCl2, 1.2 mM MgSO4, 1.2 mM KH2PO4, 25.0 mM NaHCO3, and 11.0 mM glucose) for 15 to 20 minutes, followed by 3 washes with the Krebs-Henseleit buffer until the force returned to the baseline stretch. The tension of the aortic rings was continuously measured with the Lab Chart 7 data acquisition system (ADInstruments, Colorado Springs, CO).
To assess the effect of CFZ on vascular contraction, the aortic rings were pre-treated with or without CFZ for 2 hours, followed by treatment with an increasing concentration of phenylephrine (PE) from 10 nM to 1 μM. After the maximum contraction was achieved, the aortic rings were washed 3 times until the force returned to baseline. The contraction was continuously measured and plotted as percent contraction normalized to the response of KPSS. […] The relaxation was continuously measured and plotted as percent relaxation normalized to the response with 1 μM PE. […]

[7] = system: rat aortic rings; assay: Acetylcholine-induced relaxation of phenylephrine-precontracted rat aortic rings
Protocol: For assessment of the effect of CFZ on vascular relaxation, the pre-treated aortic rings were incubated with 1 μM PE for 20 minutes to induce contraction. For experiments involving sildenafil and tadalafil, a 10-minute pre-treatment with 30 nM of these smooth muscle relaxants was done prior to the incubation with CFZ. After reaching a stable contraction, ACh, sodium nitroprusside (SNP), nifedipine, riociguat, or cinaciguat was added to the chamber at an increasing concentration from 100 pM to 10 μM; each stepwise concentration increase was added after the response to the current concentration reached a plateau. The relaxation was continuously measured and plotted as percent relaxation normalized to the response with 1 μM PE.
Aortas were isolated from 8-10 week old CD® (Sprague Dawley) rats (from Charles River Laboratories) in an ice-cold, oxygenated (95% O2, 5% CO2) Krebs-Henseleit buffer. The aortas were then carefully cleaned to remove perivascular fat and cut into 2-mm rings that were mounted between two stainless steel wires in the myograph chamber containing 8 mL of Krebs-Henseleit buffer in 95% O2 and 5% CO2 at 37° C. Rings were stretch until a final stretch of 10 mN (Newton) was reached and incubated for 30 mins for equilibration.

[8] = system: isolated rabbit hearts and aortic strips; conditions: cited from earlier work

With `CC(C)C[C@H](NC(=O)[C@H](CCc1ccccc1)NC(=O)CN1CCOCC1)C(=O)N[C@@H](Cc1ccccc1)C(=O)N[C@@H](CC(C)C)C(=O)[C@@]1(C)CO1` [CFZ, carfilzomib] as the molecule, how does the “effect on VSM relaxation in the presence of sGC activators” value [1] read?
Its value is “did not interfere with VSM relaxation”.

And the “angiotensin induced contraction, area under the curve” value [2]?
Its value is “increased angiotensin induced contraction”.

And the sGC-β protein level [3]?
Its sGC-β protein level is “increased with increasing exposure to CFZ”.

And the “effect on vascular relaxation in the presence of nifedipine” value [4]?
The value was “did not appear to significantly affect vascular relaxation”.

And the “effect on phenylephrine-induced vascular contraction” value ([5]; CFZ 0.3, 0.9 or 2.7 μM, increasing phenylephrine (FIG. 1C))?
The value was “No significant CFZ effect on vascular contraction”.

And the “effect on potassium chloride-induced vascular contraction” value ([5]; CFZ vs vehicle, increasing potassium chloride (FIG. 1D))?
Its value is “No significant CFZ effect on vascular contraction”.

And the “percent contraction under eNOS inhibition (limited NO availability)” value ([6]; 100 μM L-NAME and 10 μM indomethacin 10 minutes prior to 2-hour CFZ treatment, vs vehicle (FIG. 1B))?
Its value is “significant but minor increase of percent contraction”.

And the “vascular tone (contraction normalized to 80 mM KPSS)” value ([6]; 100 μM LNAME+10 μM indomethacin, 2.7 μM CFZ for 3 hour, vs vehicle (FIG. 10))?
Its value is “increase in vascular tone compared to vehicle”.

And the “percent contraction (basal vascular tone)” value ([6]; rings pretreated with CFZ without L-NAME, compared with vehicle control (FIG. 1A))?
The value was “did not affect vascular tone”.

What about the “EC50 for ACh-induced relaxation, CFZ alone” value ([7]; FIG. 5B experiment, vehicle alone 1.9×10^−8) of the same molecule?
The value was 7.3×10^−8.

What about the “EC50 for ACh-induced relaxation” value ([7]; in the presence of CFZ 2.7 μM, vehicle alone 3.2×10^−8 (FIG. 2A)) of the same molecule?
Its value is 1.4×10 ^−7.

And the “effect on ACh-induced relaxation (percent relaxation)” value ([7]; increasing CFZ concentrations, high concentrations of ACh (FIG. 2A))?
The value was “significantly compromised”.

And the “coronary perfusion pressure, resting vascular tone, and spasmogenic effects” value [8]?
The value was “increased”.

What about the “vasodilating effect induced by acetylcholine (ACh)” value [8] of the same molecule?
The value was “sharply reduced”.

— patent US20260144798A1, “Disruption of Vascular Smooth Muscle Relaxation by Carfilzomib May be the Primary Reason for CFZ-Induced Vascular Dysfunction” (AMGEN INC., priority 2019, published 2026)
